Results taken from ChEMBL document CHEMBL2086273, “Significant activity of ecdysteroids on the resistance to doxorubicin in mammalian cancer cells expressing the human ABCB1 transporter” (J Med Chem, 2012).

Legend:
[1] = target: T1, ATP-dependent translocase ABCB1 (Homo sapiens, UniProt P08183); experiment: Inhibition of human ABCB1 pump expressed in mouse L5178 cells assessed as fluorescence activity ratio at 20 uM for 10 mins by flow cytometry relative to control; type: cell-based; conditions: l5178, 10 min
T1 sequence (P08183 whole entry): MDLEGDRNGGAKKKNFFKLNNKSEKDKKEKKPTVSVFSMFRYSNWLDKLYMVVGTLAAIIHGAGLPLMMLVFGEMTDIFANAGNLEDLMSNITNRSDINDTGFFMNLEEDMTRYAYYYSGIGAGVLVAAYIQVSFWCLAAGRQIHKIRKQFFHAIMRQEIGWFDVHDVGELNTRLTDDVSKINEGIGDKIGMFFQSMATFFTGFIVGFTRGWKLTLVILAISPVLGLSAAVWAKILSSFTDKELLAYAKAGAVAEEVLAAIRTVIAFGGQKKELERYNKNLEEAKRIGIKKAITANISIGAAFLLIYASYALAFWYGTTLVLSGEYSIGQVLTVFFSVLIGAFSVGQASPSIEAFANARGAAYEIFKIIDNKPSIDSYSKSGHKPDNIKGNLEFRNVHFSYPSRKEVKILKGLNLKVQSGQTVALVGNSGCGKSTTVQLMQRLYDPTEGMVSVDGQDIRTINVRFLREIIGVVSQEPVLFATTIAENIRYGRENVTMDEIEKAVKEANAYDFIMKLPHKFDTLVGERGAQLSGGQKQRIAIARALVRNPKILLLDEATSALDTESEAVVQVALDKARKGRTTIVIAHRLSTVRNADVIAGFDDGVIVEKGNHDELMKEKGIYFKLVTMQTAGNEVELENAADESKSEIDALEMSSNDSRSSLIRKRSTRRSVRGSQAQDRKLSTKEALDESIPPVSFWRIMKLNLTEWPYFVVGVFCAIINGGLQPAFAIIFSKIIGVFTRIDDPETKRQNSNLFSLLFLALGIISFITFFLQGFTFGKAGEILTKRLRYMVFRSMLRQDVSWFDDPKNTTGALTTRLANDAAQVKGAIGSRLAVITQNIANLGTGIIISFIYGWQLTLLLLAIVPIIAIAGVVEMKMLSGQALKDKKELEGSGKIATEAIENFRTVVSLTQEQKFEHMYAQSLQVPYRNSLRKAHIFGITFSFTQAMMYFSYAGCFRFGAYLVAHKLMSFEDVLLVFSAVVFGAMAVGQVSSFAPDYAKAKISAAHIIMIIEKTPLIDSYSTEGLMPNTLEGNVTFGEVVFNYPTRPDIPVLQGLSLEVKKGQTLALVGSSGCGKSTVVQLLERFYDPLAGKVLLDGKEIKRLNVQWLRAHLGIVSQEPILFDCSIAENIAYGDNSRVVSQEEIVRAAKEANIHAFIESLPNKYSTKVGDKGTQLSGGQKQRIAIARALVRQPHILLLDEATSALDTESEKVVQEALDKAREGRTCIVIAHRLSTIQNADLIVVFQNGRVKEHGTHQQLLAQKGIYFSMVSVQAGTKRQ

[2] = target: T1, ATP-dependent translocase ABCB1; experiment: Inhibition of human ABCB1 expressed in mouse L5178 cells assessed as 50% inhibition of cell proliferation at compound-doxorubicin ratio of 81.5:1 after 48 hrs by MTT assay; type: cell-based; conditions: l5178, 48 h
[3] = target: T1, ATP-dependent translocase ABCB1; experiment: Inhibition of human ABCB1 expressed in mouse L5178 cells assessed as 75% inhibition of cell proliferation at compound-doxorubicin ratio of 81.5:1 after 48 hrs by MTT assay; type: cell-based; conditions: l5178, 48 h
[4] = Antiproliferative activity against multidrug-resistant mouse L5178 cells after 72 hrs by MTT assay; type: functional, cell-based; conditions: L5178, 72 h
[5] = target: T1, ATP-dependent translocase ABCB1; experiment: Inhibition of human ABCB1 expressed in mouse L5178 cells assessed as 95% inhibition of cell proliferation at compound-doxorubicin ratio of 81.5:1 after 48 hrs by MTT assay; type: cell-based; conditions: l5178, 48 h
[6] = target: T1, ATP-dependent translocase ABCB1; experiment: Inhibition of human ABCB1 expressed in mouse L5178 cells assessed as 75% inhibition of cell proliferation at compound-doxorubicin ratio of 40.8:1 after 48 hrs by MTT assay; type: cell-based; conditions: l5178, 48 h
[7] = target: T1, ATP-dependent translocase ABCB1; experiment: Inhibition of human ABCB1 expressed in mouse L5178 cells assessed as 95% inhibition of cell proliferation at compound-doxorubicin ratio of 40.8:1 after 48 hrs by MTT assay; type: cell-based; conditions: l5178, 48 h
[8] = target: T1, ATP-dependent translocase ABCB1; experiment: Inhibition of human ABCB1 expressed in mouse L5178 cells assessed as 50% inhibition of cell proliferation at compound-doxorubicin ratio of 40.8:1 after 48 hrs by MTT assay; type: cell-based; conditions: l5178, 48 h
[9] = Half life of the compound in hydrochloric acid solution at pH 1.48 at 1 mg/ml; type: physicochemical
Mus musculus [10] = experiment: Acute toxicity in CFLP mouse at 250 mg/kg, ip co-administered with […] doxorubicin after 48 hrs; type: organism-based; set-up: dose 250 mg/kg, route intraperitoneal; conditions: in vivo
[11] = Drug degradation of the compound in hydrochloric acid solution at pH 1.48 assessed as 20E 20,22-acetonide formation at 1 mg/ml; type: physicochemical; conditions: buffer
Mus musculus [12] = experiment: Acute toxicity in CFLP mouse at 250 mg/kg, ip administered as single dose; type: organism-based; set-up: dose 250 mg/kg, route intraperitoneal; conditions: in vivo
[13] = target: T1, ATP-dependent translocase ABCB1; experiment: Inhibition of human ABCB1 expressed in mouse L5178 cells assessed as 75% inhibition of cell proliferation at compound-doxorubicin ratio of 20.4:1 after 48 hrs by MTT assay; type: cell-based; conditions: l5178, 48 h
[14] = target: T1, ATP-dependent translocase ABCB1; experiment: Inhibition of human ABCB1 expressed in mouse L5178 cells assessed as 50% inhibition of cell proliferation at compound-doxorubicin ratio of 20.4:1 after 48 hrs by MTT assay; type: cell-based; conditions: l5178, 48 h
[15] = target: T1, ATP-dependent translocase ABCB1; experiment: Inhibition of human ABCB1 expressed in mouse L5178 cells assessed as 95% inhibition of cell proliferation at compound-doxorubicin ratio of 20.4:1 after 48 hrs by MTT assay; type: cell-based; conditions: l5178, 48 h

| Compound | Ratio [1] | IC50 [4] [µM] | fractional inhibitory concentration index (FICI) [6] | fractional inhibitory concentration index (FICI) [7] | fractional inhibitory concentration index (FICI) [8] | other results |
| --- | --- | --- | --- | --- | --- | --- |
| CC(O)(CO)CC[C@@H](O)[C@](C)(O)[C@H]1CC[C@@]2(O)C3=CC(=O)[C@]4(O)C[C@@H](O)[C@@H](O)C[C@]4(C)[C@H]3CC[C@]12C (some centres not stated) | 1.32 | 30 |  |  |  | fractional inhibitory concentration index (FICI) [2]: 2.24; fractional inhibitory concentration index (FICI) [3]: 0.47; fractional inhibitory concentration index (FICI) [5]: 0.12 |
| CC(=O)O[C@H]1C[C@]2(C)[C@H]3CC[C@]4(C)[C@@H]([C@@](C)(O)[C@@H](CCC(C)(C)O)OC(C)=O)CC[C@@]4(O)C3=CC(=O)[C@]2(O)C[C@H]1O | 0.84 |  | 0.86 | 0.6 | 1.22 |  |
| CC(C)(O)CC[C@H]1OC(C)(C)O[C@]1(C)[C@H]1CC[C@@]2(O)C3=CC(=O)[C@@H]4C[C@H]5OC(C)(C)O[C@H]5C[C@]4(C)[C@H]3CC[C@]12C | 19.13 |  |  |  |  | half-life at 1 mg/ml [9]: 7.3 min; Activity (Mus musculus [10]): Non-toxic; Drug degradation [11]: Active; Activity (Mus musculus [12]): Non-toxic; fractional inhibitory concentration index (FICI) [13]: 0.14; fractional inhibitory concentration index (FICI) [14]: 0.28; fractional inhibitory concentration index (FICI) [15]: 0.073 |
| C[C@@H]1C(=O)O[C@H](C)[C@H]1C[C@@H](O)[C@](C)(O)[C@H]1CC[C@@]2(O)C3=CC(=O)[C@@H]4C[C@@H](O)[C@@H](O)C[C@]4(C)[C@H]3CC[C@]12C [CYASTERONE] | 0.75 |  | 0.85 | 0.47 | 1.54 |  |
| CC(C)[C@@H](O)C[C@@H](O)[C@](C)(O)[C@H]1CC[C@@]2(O)C3=CC(=O)[C@@H]4C[C@@H](O)[C@@H](O)C[C@]4(C)[C@H]3CC[C@]12C [PTEROSTERONE] | 0.56 |  | 0.84 | 0.54 | 1.32 |  |
| CCC1C[C@H]([C@](C)(O)[C@H]2CC[C@@]3(O)C4=CC(=O)[C@@H]5C[C@@H](O)[C@@H](O)C[C@]5(C)[C@H]4CC[C@]23C)OC(=O)C1C (some centres not stated) [CAPITASTERONE] | 0.63 |  | 0.74 | 0.49 | 1.35 |  |
| CC(C)CC[C@H](O)[C@](C)(O)[C@H]1CC[C@@]2(O)C3=CC(=O)[C@@H]4C[C@@H](O)[C@@H](O)C[C@]4(C)[C@H]3[C@H](O)C[C@]12C [AJUGASTERONE C] | 1.13 | 30 |  |  |  | fractional inhibitory concentration index (FICI) [13]: 1.66; fractional inhibitory concentration index (FICI) [14]: 1.79; fractional inhibitory concentration index (FICI) [15]: 1.88 |
| CC(C)(O)CC[C@@H](OC(=O)c1ccccc1)[C@](C)(O)[C@H]1CC[C@@]2(O)C3=CC(=O)[C@@H]4C[C@@H](O)[C@@H](O)C[C@]4(C)[C@H]3CC[C@]12C | 2.18 |  | 0.43 | 0.32 | 0.58 |  |
| CC(C)(O)CC[C@@H](O)[C@](C)(O)[C@H]1CC[C@@]2(O)C3=CC(=O)[C@@H]4C[C@H](O)[C@@H](O)C[C@]4(C)[C@H]3CC[C@]12C | 0.89 | 30 |  |  |  | fractional inhibitory concentration index (FICI) [2]: 1.16; fractional inhibitory concentration index (FICI) [3]: 0.45; fractional inhibitory concentration index (FICI) [5]: 0.22 |
| C=C(C)C(C[C@@H](O)[C@](C)(O)[C@H]1CC[C@@]2(O)C3=CC(=O)[C@]4(O)C[C@@H](O)[C@@H](O)C[C@]4(C)[C@H]3CC[C@]12C)C(C)O (some centres not stated) [AJUGASTERONE B] | 0.7 |  | 0.59 | 0.3 | 1.21 |  |
| CC(C)(O)CC[C@@H](O)[C@](C)(O)[C@H]1CC[C@]2(O)C3=CC(=O)[C@@H]4C[C@@H](O)[C@@H](O)C[C@]4(C)[C@H]3CC[C@]12C | 1.03 | 30 |  |  |  | fractional inhibitory concentration index (FICI) [2]: 1.18; fractional inhibitory concentration index (FICI) [3]: 0.91; fractional inhibitory concentration index (FICI) [5]: 0.69 |
